Entries after “also recorded” stand apart in the source; their conditions may differ. Where a name gives a salt, the structure may show the parent alone.
Tests used:
[1] = tested on: cortical and hippocampal cells; assay: TUNEL-positive apoptotic cell death in cortical and hippocampal regions; assay type: in vivo, mouse; settings: 3 and 72 hours after ADR, vs saline
Protocol: (A) Brain cryosection tissues were treated with biotinylated rTdT, followed by streptavidin peroxidase and diaminobenzidine-hydrogen peroxide, and counterstained with methyl-green. […] (For interpretation of the references to colour in this figure legend, the reader is referred to the web version of this article.)

MnSOD, CuZnSOD = assay: MnSOD and CuZnSOD protein levels in brain homogenates (western blot); assay type: in vivo, mouse; settings: wild-type and iNOSKO mice, 3 hours after ADR 20 mg/kg
Protocol: Brains were perfused, the cerebellum removed and the brain dissected from mice treated with i.p. ADR 20 mg/kg, or saline as a control, for 3 hours. Brains were placed in ice-cold 50 mM PBS, pH 7.4, containing the protease inhibitors 4 μg leupeptin, 4 μg pepstatin, and 5 μg aprotinin, washed and chopped in ice-cold PBS containing protease inhibitors. Tissues were homogenized with a Potter-Elvehjem glass homogenizer with a loose fitting Teflon® pestle, and protein concentration was determined by the Bradford assay (Bradford, 1976). Brain homogenate proteins were size-separated using denaturing sodium dodecyl sulfate-polyacrylamide gel electrophoresis (SDS-PAGE). Proteins (50 μg) were electrophoresed on 12.5% SDS-PAGE and transferred to a nitrocellulose membrane. The membrane was blocked for 1 hour at room temperature in blocking solution consisting of 5% non-fat dried milk, Tris-buffered saline (TBST; 10 mM Tris-HC, 150 mM NaCl, 0.05% Tween 20), pH 7.9. After blocking, the membrane was incubated overnight at 4° C. with primary antibodies against MnSOD (Upstate, Lake Placid, N.Y., USA), Cu/ZnSOD (Calbiochem, San Diego, Calif., USA) and β-actin (Sigma) in blocking solution. […] Immunoreactivities of the protein bands were detected by enhanced chemiluminescence autoradiography (ECL; Amersham Phamacia Biotech, Arlington Heights, Ill., USA) as described by the manufacturer.

TNF α [2] = assay: Immunofluorescence of TNF α localization in neurons of cortex and hippocampus (MAP2 co-staining); assay type: in vivo, mouse; settings: 3 hours after 20 mg/kg ADR, vs saline; hydrochloride
Protocol: Brain tissue slices were fixed in 4% paraformaldehyde for 15 minutes, air dried, and washed with PBS. Non-specific proteins were blocked in blocking serum, consisting of 3% normal donkey's serum, and 0.3% Triton x-100 in PBS, and incubated at room temperature for 30 minutes. After blocking, slices were incubated with primary anti-TNF α (Upstate, Lake Placid, N.Y.), and anti-MAP2 antibody (Chemicon, Temecula, Calif.) was used as a neuronal marker, in order to study the location of TNF α in neurons of cortical and hippocampal regions. The sections were kept in a humidified box at 4° C. overnight. Tissues were washed three times with PBS and then were incubated for 1 hour with donkey antibody-conjugated secondary antibodies coated with fluorescent dyes. Excess secondary antibodies were removed by washing three times in PBS and once with deionized H2O. Tissue slides were mounted with mounting medium (Vectashield, HOURS-100, Vector Laboratories, Burlingame, Calif.). Photomicrographs were obtained using a Leica confocal fluorescence microscope (Leica Microsystems Inc., Bannockburn, Ill., USA).

cytochrome c = assay: Cytochrome c release from mitochondria to cytosol (Western blot); assay type: in vivo, mouse; settings: brain tissue 3 hours after ADR
Protocol: Western blot analyses of cytochrome c and succinate dehydrogenase or β-actin were determined in mitochondrial or cytosolic fractions isolated from brain tissues 3 hours after mice were treated with ADR, and anti-TNF antibody immediately followed by ADR, and anti-TNF antibody, IgG, or saline as controls. Cytochrome c was decreased in mitochondria (*P<0.01) but increased cytosol after treatment with ADR or IgG followed by ADR. Succinate dehydrogenase or β-actin were used to normalize for protein loading. The Western blots shown a re a representative set of data of n=3 separate sets from individual animals. Quantification of all the data

TNF α [3] = assay: TNF α levels in brain tissue homogenates (Western blot); assay type: in vivo, mouse; settings: 3 hours after single dose, vs saline control
Protocol: Brains perfused with PBS were isolated and dissected from four groups of mice 3 hours post injection of a single dose of ADR, anti-TNF α antibody, anti-TNF α antibody immediately followed by ADR, or saline treated mice. Brain was isolated and placed in 0.1 M PBS, pH 7.4 containing protease inhibitors, 4 μg leupeptin, 4 μg pepstatin, and 5 μg aprotinin, washed and minced in ice-cold PBS containing protease inhibitors. […] Protein concentration of brain homogenate was determined by the Bradford assay (Bradford, 1976).
Perfused brain homogenates and isolated mitochondrial proteins were size-separated via 12.5% denaturing polyacrylamide gel electrophoresis (SDS-PAGE) and transferred to a nitrocellulose membrane. The membrane was blocked for 1 hour at room temperature in blocking solution consisting of 5% non-fat dried milk, 0.5% Tween-20 and Tris-buffered saline (TBST), pH 7.9. […] Immunoreactivities of the protein bands were detected by enhanced chemiluminescence autoradiography (ECL, Amersham Phamacia Biotech, Arlington Heights, Ill.) as described by the manufacturer.

[4] = seventy-two hours after a single intraperitoneal injection of ADR; cited from earlier work
iNOS mRNA = iNOS mRNA expression in brain tissues (RT-PCR); assay type: in vivo, mouse; settings: wild-type mice, 3 hours after treatment, vs saline controls
Protocol: At 3 hours after treatment, mice were anesthetized and perfused via cardiac puncture with 0.1 M PBS, pH 7.4. The MRNA was isolated using the Micro-FastTrack 2.0 Kit (Invitrogen, Groningen, Netherlands) according to the manufacturer's instructions. The purified MRNA (5 μg) was subjected to reverse-transcription into first strand cDNA in each 20 μL of reaction mixture using the SuperScript III First-Strand Synthesis System for RT-PCR (Invitrogen) according to the manufacturer's instruction. A 25 μL PCR reaction contained 5 μL first strand cDNA, 0.1 U Taq DNA polymerase (Invitrogen), 10 mM 10×PCR buffer, 1.5 mM MgCl2, 2.5 mM dNTP and 10 pmol of each specific primer. PCR samples were subjected to the following conditions: 35 cycles for iNOS (94° C.: 1 minute; 65° C.: 1 minute; 72° C.: 1 minute), 32 cycles for β-actin (94° C.: […]; 55° C.: 30 s; 72° C.: 10 minutes), on a thermocycle (Perkin-Elmer). The primers with the target gene sequences were synthesized by Invitrogen. The primer sequence iNOS was 5′-CTGATGGTCAAGATCCAG-A-GGTCT-3′ (forward) and 5′-[…]-CTCT-3′(reverse), and the primer for β-actin was 5′-TGTTAC-CAACTGGGACGACA-3′ (forward) and 5′-CTGGGTCATCTT-TTCACCGT-3′ (reverse). After amplification, PCR products were subjected to 1% agarose gel electrophoresis, and visualized by ethidium bromide staining. The relative density of bands was analyzed under ultraviolet light (Bio-Rad). Experiments were repeated three times for reproducibility.

[5] = in vivo; cited from earlier work
[6] = tested on: p53, Bax, Bcl-xS, Bcl-xL, MnSOD in mitochondria; assay: Immunoblots of pro- and anti-apoptotic proteins in brain mitochondria; assay type: in vivo, mouse
Protocol: Perfused brain homogenates and isolated mitochondrial proteins were size-separated via 12.5% denaturing polyacrylamide gel electrophoresis (SDS-PAGE) and transferred to a nitrocellulose membrane. The membrane was blocked for 1 hour at room temperature in blocking solution consisting of 5% non-fat dried milk, 0.5% Tween-20 and Tris-buffered saline (TBST), pH 7.9. After blocking, the membrane was incubated overnight at 4° C. with primary antibodies against TNF α (Upstate, Lake Placid, N.Y.) and β-actin (Sigma, St. Louis, […].) in homogenate samples, or isolated mitochondria samples for p53 (Ab-11, Oncogene Research, Cambridge, Mass.), Bcl-xS/L (S-18), Bax (P-19) (Santa Cruz Biotechnology, Santa Cruz, Calif.), MnSOD (Upstate, Lake Placid, N.Y.), and glyceraldehyde-3-phosphate dehydrogenase (G-3-PDH, Trevigen, Gaithersburg, Md.) in blocking solution. The membrane was washed twice in TBST and incubated for 1 hour with horseradish peroxidase-conjugated secondary antibodies in blocking solution. After incubation with secondary antibodies, the membrane was washed twice with TBST and once in TBS (TBS without 0.5% Tween-20). Immunoreactivities of the protein bands were detected by enhanced chemiluminescence autoradiography (ECL, Amersham Phamacia Biotech, Arlington Heights, Ill.) as described by the manufacturer.
The final protein concentration was 20-40 mg/ml.

[7] = after ADR 20 mg/kg, 3-72 hours, vs saline, hydrochloride
[8] = after ADR, any time point studied

CuZnSOD protein level in brain homogenates (MnSOD, CuZnSOD): no change
MnSOD protein level in brain homogenates (MnSOD, CuZnSOD): no change
Cytochrome c in cytosolic fraction (cytochrome c): increased
Cytochrome c in mitochondrial fraction (cytochrome c): decreased
Structure (SMILES): COc1cccc2c1C(=O)c1c(O)c3c(c(O)c1C2=O)C[C@@](O)(C(=O)CO)C[C@@H]3O[C@H]1C[C@H](N)[C@H](O)[C@H](C)O1 [ADR, Doxorubicin hydrochloride]
TUNEL-positive apoptotic cells in cortex and hippocampus [1]: increased number of apoptotic cells
TNF α in neurons of cortex (TNF α [2]): clearly were increased
TNF α in neurons of hippocampus (TNF α [2]): clearly were increased
TNF α levels in brain tissue homogenates (TNF α [3]): significantly increased
Levels of protein oxidation and lipid peroxidation in brain tissues [4]: significant increase
iNOS mRNA levels in brain tissues (iNOS mRNA): significantly increased
Crossing of the blood brain barrier [5]: does not cross the blood brain barrier
Bax level in brain mitochondria [6, 7]: increased with a similar kinetics to that of p53; also recorded: increased at 3 and 6 hours; also recorded: increase in protein density
p53 level in brain mitochondria [6, 7]: increased in mitochondria early times after ADR treatment (3, 6, 24 hours), then declined at 48, and 72 hours; also recorded: significantly increased at 3, 6, and 24 hours; also recorded: increase in protein density
Bcl-xS level in brain mitochondria [6, 8]: no significant changes
MnSOD level in brain mitochondria [6, 8]: no significant changes

— US20080131432A1, “Method of treating the chemotoxic effects of chemotherapeutic drugs on brain tissue” (University of Kentucky Research Foundation, priority 2005, published 2008)
